Broadly, the pIC50 is the IC50 on a negative log10 scale, so that one unit is a factor of ten.

pIC50: −log10 of the molar value. Marks after values point to notes of the source that are not given here.

One molecule from patent US9969698B2, “Quinoxalinyl-piperazinamide methods of use” (REXAHN PHARMACEUTICALS, INC., priority 2015, dated 2018) can be followed below.

The target in one data set is CYP3A4 (Homo sapiens, UniProt P08684). As to the kind of experiment: Loss of RX-5902 after incubation with expressed CYP450 isozyme. The data set is classed as in vitro ADME. The following applies: 30-minute incubation with expressed CYP3A4. The protocol:
(§1) Two in vitro studies were performed to examine the involvement of specific cytochrome P450 (CYP450) isozymes in the in vitro metabolism of RX-5902. In the first study, the loss of RX-5902 was measured after incubation with expressed CYP450 isozymes (1A2, 2A6, 2B6, 2C8, 2C9, 2C19, 2D6, 3A4 and 3A5). […] In the second study, RX-5902 was incubated with pooled human liver microsomes in the presence of CYP450 isozyme-selective chemical inhibitors. The inhibitors tested were selective for 1A2, 2A6, 2B6, 2C8, 2C9, 2C19, 2D6, and 3A4/5.

In another data set the target is CYP3A5 (Homo sapiens, UniProt P20815). The description is as above. The data set is classed as in vitro ADME. To be noted: 30-minute incubation with expressed CYP3A5. The protocol: as §1
The test system of data set [1] is human pancreas tumor xenografts (MiaPaca-2). As to the kind of experiment: Pancreatic cancer xenograft model. In kind it is in vivo, mice. The following applies: oral, 5ON/2OFF. An excerpt: The efficacy of RX-5902 in human cancer xenograft mouse models is examined. Female nude mice (nu/nu, Harlan or CRL: NU(NCr)-Foxn1^nu, Charles River), 9-10 weeks old, with a body weight (BW) range of 15-30 g on day 1 of the study, are fed ad libitum water (reverse osmosis, 1 ppm C1), and NIH 31 Modified and Irradiated Lab Diet® consisting of 18.0% crude protein, 5.0% crude fat, and 5.0% crude fiber. The mice are housed on irradiated Enrich-o'Cobs™ Laboratory Animal Bedding in static microisolators on a 12-hour light cycle at 20-22° C. (68-72° F.) and 40-60% humidity. […]
(§2) The cells are harvested during exponential growth and re-suspended with phosphate buffered saline. Each test animal receives a subcutaneous (s.c.) injection of 5×10^6 tumor cells into the right flank and tumor growth is monitored as the average tumor size approaches the target range of 80-300 mm^3. […] Tumors and body weights are measured regularly until the study is terminated.
(§3) Tumors are measured in two dimensions using calipers, and volume is calculated using the formula: […]
Treatment efficacy is determined using data from Day 15. The MTV (n), the median tumor volume for the number of animals, n, on Day 15, is determined for each group. […]
Animals are monitored individually for tumor growth until Day 71. […] The time to endpoint (TTE) for each mouse is calculated with the following equation: […]

In data set [2] the test system is human colorectal tumor xenografts (Colo205). The data set can be described thus: Colorectal cancer xenograft model. In kind it is in vivo, mice. The following applies: oral.
Source text: (§4) The efficacy of RX-5902 in human cancer xenograft mouse models is examined. Female nude mice (nu/nu, Harlan or CRL: NU(NCr)-Foxn1^nu, Charles River), 9-10 weeks old, with a body weight (BW) range of 15-30 g on day 1 of the study, are fed ad libitum water (reverse osmosis, 1 ppm C1), and NIH 31 Modified and Irradiated Lab Diet® consisting of 18.0% crude protein, 5.0% crude fat, and 5.0% crude fiber. The mice are housed on irradiated Enrich-o'Cobs™ Laboratory Animal Bedding in static microisolators on a 12-hour light cycle at 20-22° C. (68-72° F.) and 40-60% humidity. The study complies with the recommendations of the Guide for, Care and Use of Laboratory Animals with respect to restraint, husbandry, surgical procedures, feed and fluid regulation, and veterinary care.
(§5) Various human tumor cell lines (e.g., HCT116, HT29, H460, H69, Caki-1, CaSki, MiaPaca2, BxPC3 and Colo 205 cells [ATCC, Manassas, Va., USA]) are cultured according to ATCC's instruction. […]
as §2, §3
(§6) Treatment efficacy is determined using data from Day 15. The MTV (n), the median tumor volume for the number of animals, n, on Day 15, is determined for each group. Percent tumor growth inhibition (% TGI) is defined as the difference between the MTV of the designated control group (vehicle administration) and the MTV of the drug-treated group, expressed as a percentage of the MTV of the control group: % TGI=[1−(MTVdrug treated/MTVcontrol)]×100 The data set for TGI analysis includes all animals in a group, except those that die due to treatment-related (TR) or non-treatment-related (NTR) causes. […]
(§7) Animals are monitored individually for tumor growth until Day 71. […]

Data set [3] deals with human non-small cell lung tumor xenografts (A549). The data set can be described thus: Non-small cell lung cancer xenograft model. In kind it is in vivo, mice. The following applies: oral.
Source text: as §4, §5, §2, §3, §6, §7

Another data set concerns the target T1, phospho-p68 (Homo sapiens, UniProt P17844).
T1 construct: made in house
The data set can be described thus: β-catenin dependent ATPase assay. In kind it is biochemical. The protocol: ATPase activity was determined by measuring the released inorganic phosphate during ATP hydrolysis using a direct colorimetric assay (Shin et al., Cancer Res., 67:7572-7578 (2007); Yang et. al., Cell, 127:139-155 (2006)). A typical ATPase assay was carried out in 50 μl reaction volumes, containing 20 mM Tris-HCl pH 7.5, 200 mM NaCl, 1 mM MgCl2, 5 mM DTT, ˜1-2 of appropriate substrate, 4 mM ATP, and 10 μl of helicase. The ATPase reactions were incubated at 37° C. for 30 minutes. After incubation, 1 ml of malachitegreen-molybdenum reagent was added to the reaction mixture, and reactions were further incubated at room temperature for exactly 5 minutes. The absorption (A) at 630 nm was then measured. The concentrations of inorganic phosphate were determined by matching the A630nm in a standard curve of A630nm vs. known phosphate concentrations. The proteins, p68 or phospho-p68, used for this assay were prepared in-house similar to the procedure reported previously (Yang et al., Protein Expr. Purif., 35:327-333 (2004)). The percentage of inhibition by defining the ATPase activity of phospho-p68 without RX-5902 as zero percent inhibition was calculated and IC50 of RX-5902 was calculated by non-linear regression analysis using Kaledia Graph software program (Synergy Software, Reading, Pa.).
The experiment was repeated at lower concentrations of RX-5902 to calculate IC50.

T1 sequence (P17844 whole entry): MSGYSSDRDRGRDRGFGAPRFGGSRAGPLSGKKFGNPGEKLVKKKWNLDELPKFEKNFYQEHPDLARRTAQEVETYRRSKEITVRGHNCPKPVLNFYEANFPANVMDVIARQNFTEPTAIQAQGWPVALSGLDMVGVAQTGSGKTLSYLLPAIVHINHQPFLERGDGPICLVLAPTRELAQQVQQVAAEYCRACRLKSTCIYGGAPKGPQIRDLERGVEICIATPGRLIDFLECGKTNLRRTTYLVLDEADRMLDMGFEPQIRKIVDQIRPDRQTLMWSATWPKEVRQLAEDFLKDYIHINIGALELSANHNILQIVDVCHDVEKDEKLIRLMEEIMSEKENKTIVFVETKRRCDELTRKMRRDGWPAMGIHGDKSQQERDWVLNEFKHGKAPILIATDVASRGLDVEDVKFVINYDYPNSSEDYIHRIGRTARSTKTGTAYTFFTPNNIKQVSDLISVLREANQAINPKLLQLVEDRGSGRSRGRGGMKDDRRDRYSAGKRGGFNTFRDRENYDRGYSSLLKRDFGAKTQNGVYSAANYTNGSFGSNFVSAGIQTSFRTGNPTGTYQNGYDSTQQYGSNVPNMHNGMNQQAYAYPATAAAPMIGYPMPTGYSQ
CYP3A4, sequence (P08684 whole entry): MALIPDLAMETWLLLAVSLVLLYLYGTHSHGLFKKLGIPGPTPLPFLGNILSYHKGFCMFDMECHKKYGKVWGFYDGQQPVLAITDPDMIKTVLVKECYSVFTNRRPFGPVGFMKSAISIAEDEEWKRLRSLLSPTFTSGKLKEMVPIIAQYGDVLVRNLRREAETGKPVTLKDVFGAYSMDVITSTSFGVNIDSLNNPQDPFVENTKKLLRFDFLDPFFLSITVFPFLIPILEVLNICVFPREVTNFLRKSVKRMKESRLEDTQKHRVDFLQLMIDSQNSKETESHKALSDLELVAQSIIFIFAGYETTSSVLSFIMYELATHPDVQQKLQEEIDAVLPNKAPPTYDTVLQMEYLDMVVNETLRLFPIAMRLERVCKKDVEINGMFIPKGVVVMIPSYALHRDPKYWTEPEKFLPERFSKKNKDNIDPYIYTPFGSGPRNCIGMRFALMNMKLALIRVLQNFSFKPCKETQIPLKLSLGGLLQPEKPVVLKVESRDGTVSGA
CYP3A5, sequence (P20815 whole entry): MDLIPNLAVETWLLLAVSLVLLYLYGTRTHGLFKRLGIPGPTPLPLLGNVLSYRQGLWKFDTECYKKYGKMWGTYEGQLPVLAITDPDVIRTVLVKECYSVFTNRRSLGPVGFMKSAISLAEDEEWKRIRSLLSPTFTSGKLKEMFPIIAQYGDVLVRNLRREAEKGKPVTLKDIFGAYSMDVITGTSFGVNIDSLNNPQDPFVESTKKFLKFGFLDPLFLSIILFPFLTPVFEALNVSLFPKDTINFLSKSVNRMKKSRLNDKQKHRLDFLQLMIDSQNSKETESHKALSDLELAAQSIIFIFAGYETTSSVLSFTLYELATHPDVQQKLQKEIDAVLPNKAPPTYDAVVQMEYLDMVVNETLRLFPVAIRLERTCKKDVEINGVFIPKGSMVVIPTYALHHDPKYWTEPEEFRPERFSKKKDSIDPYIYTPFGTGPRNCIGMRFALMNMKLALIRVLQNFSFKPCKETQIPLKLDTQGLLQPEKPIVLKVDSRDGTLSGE

As for `COc1cc(OC)cc(N2CCN(C(=O)Nc3nc4cc(F)ccc4nc3OC)CC2)c1` [RX-5902, 4-(3,5-dimethoxyphenyl)-N-(7-fluoro-3-methoxyquinoxalin-2-yl)piperazine-1-carboxamide], the “loss of RX-5902” value stood at 87% on CYP3A4 and 54% at CYP3A5. The TGD % in data set [1] (50 mg/kg) worked out at 83%^; in data set [1] (70 mg/kg), 339%^. Moreover, the TGI % in data set [2] (160 mg/kg QWK) is given as 0%*; in data set [2] (320 mg/kg QWK) it was 13%*; in data set [2] (600 mg/kg QWK) it was 33%*; in data set [3] (160 mg/kg QWK) it was 30%*; in data set [3] (320 mg/kg QWK) it was 26%*; in data set [3] (600 mg/kg QWK), 26%*. At phospho-p68 (0.2 μM), the “β-catenin dependent ATPase activity” value is “largely diminished”. Moreover, on phospho-p68 (read-out: IC50 for the inhibition of β-catenin dependent ATPase activity), the negative-log IC50 (pIC50) is 7.21.
